From article PMC7035281 (Nature Communications, 2020)

Columns and labels:
LeuT (LeuTWT) [1] = target: T1, LeuT (LeuTWT) (Aquifex aeolicus, UniProt O67854, W8A); assay: scintillation proximity saturation binding, purified protein in DDM; X-ray structure […] Å
T1 construct: gene snf; full length, C-terminal thrombin site and 8xHis tag (pET16b), E. coli C41(DE3), purified in DDM; crystal of W8A a dimer in the asymmetric unit, residues 13-511 and 13-507 visible; smFRET variant from pQO18-TEV vector, His-tagged

LeuT (LeuTWT) [2] = target: T2, LeuT (LeuTWT) (Aquifex aeolicus, UniProt O67854); assay: scintillation proximity saturation binding, purified protein in DDM
T2 construct: gene snf; full length, C-terminal thrombin site and 8xHis tag (pET16b), E. coli C41(DE3), purified in DDM; crystal of W8A a dimer in the asymmetric unit, residues 13-511 and 13-507 visible; smFRET variant from pQO18-TEV vector, His-tagged

N[C@@H](Cc1ccccc1)C(=O)O [L-Phe]
Kd (LeuT (LeuTWT) [1]): 796 ± 139 nM
Kd (LeuT (LeuTWT) [2]): 898 ± 1130 nM
